Assays:
[1] = system: mouse neural stem cells (NSC) derived from the medial ganglionic eminence of E12.5 mouse embryos; assay: Oligodendrogenesis from mouse neural stem cells in vitro (flow cytometry, immunofluorescence); assay type: cell-based; conditions: NSC in PDGF-AA differentiation media, 48 hrs
Source text: Mice were bred and utilized as approved by the University of California, Irvine Institutional Animal Care and Use Committee. Dorsal forebrain cortical tissue was dissected from the medial ganglionic eminence (MGE) at embryonic day 12.5 (E12) of CD1 mice (Charles River) or Mgat5−/− C57BL/6 mice and their wildtype littermates and placed in dissection buffer comprising PBS, 0.6% glucose, and 50 U/mL Pen/Strep. Tissue from multiple embryos within the same litter were pooled, and a subsequent culture from a single litter was considered a biological repeat. The tissue was dissociated using 0.05% Trypsin-EDTA at 37° C. for 10 min, followed by treatment with soybean trypsin inhibitor (Life Technologies). Dissociated cells were re-suspended in proliferation medium comprising DMEM, 1× B27, 1× N2, 1 mM sodium pyruvate, 2 mM L-glutamine, 1 mM N-acetylcysteine, 20 ng/mL EGF (PeproTech), 10 ng/mL bFGF (PeproTech), and 2 μg/mL heparin and seeded at 150,000 cells/mL (non-tissue culture treated plastic plates) and grown as non-adherent spheres. Cell cultures were passaged approximately every 3 days using enzyme-free NeuroCult Chemical Dissociation Kit (Mouse) (StemCell Technologies). Cultures were passaged at least once prior to experimental use. For experiments, passaged cells were cultured in proliferation media (bFGF and EGF) or differentiation media (bFGF (10 ng/ml) and PDGF-AA (10 ng/ml); Life technologies) for 48 hours with or without the presence of GIcNAc (Ultimate Glucosamine, Wellesley Therapeutics) or kifunensine (GlycoSyn). Neurospheres were dispersed using the enzyme-free NeuroCult kit before being analyzed by flow cytometry using one or more of the following antibodies: anti-CD140a/PDGF-RA PE conjugate (1:200, A15785, Molecular Probes), anti-04 Alexa Fluor 488 conjugated (1:200, FAB1326G, RnD systems), Anti-GaIC Alexa Fluor 647 1:200, MAB342-AF647, Millipore), Anti-Olig2 (1:200, AB9610, Millipore) with anti-rabbit Alexa Fluor 488 (1:200, thermofisher).
For neural stem cell (NSC) immunofluorescence, whole neurospheres were seeded onto laminin-coated coverslips (Neuvitro) in proliferation medium. After 24 hours, proliferation media was removed and replaced with differentiation medium (same components as proliferation medium but excluding EGF, bFGF, and heparin) to induce differentiation. For analysis of mouse brains, brains were incubated in 30% sucrose for at least 72 hours, embedded in OCT (Tissue-tek), frozen for at least 48 hours at −80° C., and then cut at 40 microns on a cryostat. Multiple sections from −1 bregma to −2.5 bregma were then stained with antibodies for MBP (1:100; MAB386, Millipore), Olig2 (1:200; AB9610, Millipore), CC1 (1:100; OP90, Millipore), degraded MBP (1:200, AB5864, Millipore) and Amyloid Precursor Protein (APP, 1:200; clone 22C11). After overnight incubation with primary antibody, tissues were washed and incubated with secondary antibodies: goat anti-rat Alexa-fluor 488 (1:200, Thermofisher), goat anti-rabbit TxRd (1:200, Thermofisher). APP is a marker for neuro-axonal damage while co-staining for CC1 and Olig2 are markers of mature oligodendrocytes. In order to examine the amount of myelin, slices were incubated in Fluoromyelin (1:300; F34651, Thermofisher) for 45 minutes. Images were acquired on a Keyence fluorescence microscope. Mean fluorescence intensity of the medial corpus callosum was measured using ImageJ.
Oligodendrogenesis were examined in vitro using mouse neural stem cells (NSC) derived from the medial ganglionic eminence of E12.5 mouse embryos, where OPC's first appear. […] Consistent with increased PDGFRα surface expression, GIcNAc also promoted pre-oligodendrocyte differentiation as evidenced by augmented expression of Oligodendrocyte Transcription Factor (OLIG2) and increased numbers of 04 and GaIC positive cells (FIGS. 1A, 1B and 1C, FIGS. 5B and 5C). […]

[2] = Brain uptake of oral [U13C]GIcNAc, LC-MS/MS of perfused brains

Row | Compound | PDGFRα surface expression [1] | number of O4 cells induced by PDGF-AA differentiation media [1] | UDP-[U13C]-HexNAc in brain ([2]; suckling pups of treated lactating mothers) | UDP-[U13C]-HexNAc in brain ([2]; treated adult female mice, 1 mg/mL in drinking water, perfused brains)
1 | O=C1N[C@@H]2[C@@H](O)[C@@H](O)[C@H](O)[C@@H](CO)N2C1=O [kifunensine, reference compound] | significantly reduced | significantly reduced |  | 
2 | N-Acetyl-D-[UL-^13C6]glucosamine [[U^13C]GIcNAc] |  |  | identified | identified
